The subject of this experiment is Plasmodium berghei. Kind of experiment: Luciferase/luciferin-expressing antifolate-resistant parasites were used to infect a culture of HepG2 cells that were pre-incubated with compounds. Infected hepatocytes emit light due to the luciferase reaction. Assay results are presented as the percent inhibition of light emission compared to control. […]. Type of experiment: functional. The following applies: sporozoite; for IC90: read-out: LUCIFERASE INFECTION ASSAY - IC90.

The mark [1] stands for this setting: read-out: LUCIFERASE INFECTION ASSAY - IC50.

Structures are written as SMILES. A value given as a limit tells only on which side of the number the result lay.

For `CNc1nc2cnc(Nc3cccc(Cl)c3)cc2n1Cc1ccco1`, the IC90 is > 10 µM. For the same molecule, the IC50 (HEPG2TOX_HILL_SLOPE 1.66, HEPG2TOX_R_SQUARED 0.976, PBLUC_HILL_SLOPE 2.05, PBLUC_R_SQUARED 0.683, read-out: LUCIFERASE INFECTION ASSAY - IC50) was found to be 3.63 µM.
As to `Cc1cnc(NC(=O)c2ccc(CN3CCCCC3)cc2)s1`, the IC90 was > 10 µM. For the same molecule, where the note is “FFLUC_HILL_SLOPE 0.622, FFLUC_R_SQUARED 0.84, HEPG2TOX_HILL_SLOPE 8.37, HEPG2TOX_R_SQUARED 0.336, PBLUC_HILL_SLOPE 1, PBLUC_R_SQUARED 0.657, read-out: LUCIFERASE INFECTION ASSAY - IC50”, the IC50 came to 1.28 µM.
Turning to `CN(Cc1nc(-c2ccccc2)c2ccccc2n1)Cc1nc(=O)c2ccccc2[nH]1`, the IC90 is > 10 µM. For the same molecule, under setting [1], the half-maximal inhibitory concentration (IC50) was > 10 µM.
For the molecule `CCc1ccccc1Nc1nc(N)nc(CN2CCc3ccccc32)n1`, the IC90 is > 10 µM. Moreover, where the note is “PBLUC_HILL_SLOPE 1.23, PBLUC_R_SQUARED 0.247, read-out: LUCIFERASE INFECTION ASSAY - IC50”, the IC50 was 5.31 µM.
As for `Cc1ccc(-c2nc(CSc3nc(C)c(C)n3CC3CCCO3)co2)c(C)c1` (stereo not given), the IC90 is > 10 µM. In addition, the IC50 (FFLUC_HILL_SLOPE 1.24, FFLUC_R_SQUARED 0.0904, HEPG2TOX_HILL_SLOPE 3.11, HEPG2TOX_R_SQUARED 0.82, read-out: LUCIFERASE INFECTION ASSAY - IC50) is > 10 µM.
On to `Cc1nc2ccccn2c1-c1ccnn1S(=O)(=O)c1ccc(F)cc1`, for which the IC90 turned out to be 3.78 µM. The IC50 (HEPG2TOX_HILL_SLOPE 1.46, HEPG2TOX_R_SQUARED 0.888, PBLUC_HILL_SLOPE 12.2, PBLUC_R_SQUARED 0.241, read-out: LUCIFERASE INFECTION ASSAY - IC50) amounted to 3.16 µM.
With `Cc1cc(C)c(S(=O)(=O)N2CCC(C(=O)Nc3nnc(C)o3)CC2)c(C)c1`, the IC90 was > 10 µM. The IC50 under setting [1] is > 10 µM.
As to `COC(=O)c1ccc(-n2c(C)cc(C(=O)COC(=O)c3cc4c(=O)n5ccccc5nc4s3)c2C)cc1`, the IC90 was > 10 µM. Further, the IC50 under setting [1] is 9.43 µM.
The matching figures for `Cc1nn(C)c2sc(C(=O)N(C)c3nc4ccccc4s3)cc12`: > 10 µM and > 10 µM.
Take `OCc1cccc(-c2cnc3ccc(-c4cccc(Oc5ccccc5)c4)nn23)c1`: the IC90 came to 4.64 µM. Further, where the note is “HEPG2TOX_HILL_SLOPE 3.57, HEPG2TOX_R_SQUARED 0.188, PBLUC_HILL_SLOPE 2.99, PBLUC_R_SQUARED 0.337, read-out: LUCIFERASE INFECTION ASSAY - IC50”, the IC50 is 2.23 µM.
Turning to `CCCc1c(C)[nH]c2[nH]n(-c3nc(C)cc(C)n3)c(=O)c2c1=O`, the concentration for an effect of 90% (IC90) is > 10.5 µM. Moreover, under “PBLUC_HILL_SLOPE 2.87, PBLUC_R_SQUARED 0.443, read-out: LUCIFERASE INFECTION ASSAY - IC50”, the IC50 was > 10.5 µM.
Consider `O=C1C=CC(=O)N1c1cccc(Br)c1`, for which the IC90 was > 13.1 µM. Further, under “PBLUC_HILL_SLOPE 13.6, PBLUC_R_SQUARED 0.314, read-out: LUCIFERASE INFECTION ASSAY - IC50”, the IC50 was determined as 12.9 µM.
On to `COc1ccc(NC(=O)C(c2ccccc2)N2CCN(C)CC2)cc1Cl` (stereo not given), for which the IC90 is > 10 µM. The IC50 under setting [1] was > 10 µM.
Regarding `O=C(Nc1cccc(Cl)c1)n1nccc1-c1cc(-c2ccccc2)no1`, the IC90 was > 9.05 µM. Also, under setting [1], the IC50 is > 9.05 µM.
As for `O=C(Nc1ccc(Cl)c(Cl)c1)n1ccc(C(F)(F)F)n1`, the IC90 is > 10.2 µM. Moreover, for the setting “HEPG2TOX_HILL_SLOPE 2.26, HEPG2TOX_R_SQUARED 0.289, PBLUC_HILL_SLOPE 2.6, PBLUC_R_SQUARED 0.537, read-out: LUCIFERASE INFECTION ASSAY - IC50”, the concentration for half-maximal inhibition (IC50) is 5.64 µM.
Regarding `COc1cc2c(cc1OC)C(c1ccccc1Cl)N(C(=O)c1sc3ccccc3c1Cl)CC2` (stereo not given), the IC90 is > 6.62 µM. For the same molecule, where the note is “PBLUC_HILL_SLOPE 2.93, PBLUC_R_SQUARED 0.186, read-out: LUCIFERASE INFECTION ASSAY - IC50”, the IC50 was 4.9 µM.
With `CCOC(=O)c1sc2ncnc(NCCC(O)(c3ccc(C)o3)C(F)(F)F)c2c1C` (stereo not given), the IC90 is 3.68 µM. For the setting “HEPG2TOX_HILL_SLOPE 2.98, HEPG2TOX_R_SQUARED 0.521, PBLUC_HILL_SLOPE 13.8, PBLUC_R_SQUARED 0.46, read-out: LUCIFERASE INFECTION ASSAY - IC50”, the IC50 turned out to be 3.14 µM.
Take `COc1cccc(C(=O)N(c2nc3ccccc3s2)c2c(C)cccc2C)c1`: the IC90 is > 10 µM. In addition, the IC50 (PBLUC_HILL_SLOPE 0.58, PBLUC_R_SQUARED 0.199, read-out: LUCIFERASE INFECTION ASSAY - IC50) is > 10 µM.
For the molecule `CCCCN(C)CC(O)Cn1c2ccc(Br)cc2c2cc(Br)ccc21` (stereo not given), the IC90 was > 7.05 µM. Also, for the setting “PBLUC_HILL_SLOPE 8.48, PBLUC_R_SQUARED 0.699, read-out: LUCIFERASE INFECTION ASSAY - IC50”, the IC50 was determined as 5.83 µM.
With `CCN(c1ccc(NC(=O)c2cnccn2)cc1)C(C)C`, the IC90 was > 10 µM. Besides, the IC50 (FFLUC_HILL_SLOPE 1.65, FFLUC_R_SQUARED 0.318, PBLUC_HILL_SLOPE 0.412, PBLUC_R_SQUARED 0.204, read-out: LUCIFERASE INFECTION ASSAY - IC50) was > 10 µM.
With `CCOc1ccc(-n2c(SC(C)C(=O)c3ccc(C(C)C)cc3C(C)C)nnc2-c2c[nH]c3ccccc23)cc1` (stereo not given), the IC90 was > 10 µM. The IC50 (FFLUC_HILL_SLOPE 12.2, FFLUC_R_SQUARED 0.489, PBLUC_HILL_SLOPE 1.92, PBLUC_R_SQUARED 0.281, read-out: LUCIFERASE INFECTION ASSAY - IC50) is 5.8 µM.
Consider `CC(c1nc(N)nc(N(C)C)n1)N1CCN(C(c2ccc(F)cc2)c2ccc(F)cc2)CC1` (stereo not given), for which the IC90 came out at 3.79 µM. The IC50 (PBLUC_HILL_SLOPE 16.2, PBLUC_R_SQUARED 0.638, read-out: LUCIFERASE INFECTION ASSAY - IC50) worked out at 3.31 µM.
Regarding `Cc1cc(NCc2ccccn2)n2ncc(-c3ccccc3Cl)c2n1`, the IC90 is > 9.43 µM. The IC50 (PBLUC_HILL_SLOPE 4.03, PBLUC_R_SQUARED 0.181, read-out: LUCIFERASE INFECTION ASSAY - IC50) was 5.66 µM.
In the case of `COc1ccc(C(=O)Nc2cc(Cl)ccc2N2CCCCC2)cc1S(=O)(=O)N(C)OC`, the concentration for an effect of 90% (IC90) is > 10 µM. In addition, the IC50 (FFLUC_HILL_SLOPE 10.9, FFLUC_R_SQUARED 0.3, PBLUC_HILL_SLOPE 12.4, PBLUC_R_SQUARED 0.0122, read-out: LUCIFERASE INFECTION ASSAY - IC50) was > 10 µM.
Regarding `COc1cccc(C(=O)c2c(-c3ccco3)c3c4n(c(-c5ccc(Cl)cc5)cn24)CCCC3)c1`, the IC90 is > 10 µM. Where the note is “PBLUC_HILL_SLOPE 14.1, PBLUC_R_SQUARED 0.641, read-out: LUCIFERASE INFECTION ASSAY - IC50”, the 50% inhibitory concentration (IC50) stood at 9.18 µM.
In the case of `COc1cc(CNCc2ccc3c(c2)OCO3)ccc1OCc1ccc(F)cc1`, the IC90 was > 8.35 µM. Besides, the IC50 (PBLUC_HILL_SLOPE 2.11, PBLUC_R_SQUARED 0.727, read-out: LUCIFERASE INFECTION ASSAY - IC50) turned out to be 5.34 µM.
Take `Cc1nnsc1C(=O)Nc1cccc(C(F)(F)F)c1`: the IC90 amounted to 10.6 µM. For the same molecule, the 50% inhibitory concentration (IC50) (HEPG2TOX_HILL_SLOPE 2.18, HEPG2TOX_R_SQUARED 0.919, PBLUC_HILL_SLOPE 3.32, PBLUC_R_SQUARED 0.374, read-out: LUCIFERASE INFECTION ASSAY - IC50) was found to be 5.46 µM.
As to `CCOC(=O)NC(=O)/C(C#N)=N/Nc1ccccc1`, the IC90 was determined as 0.557 µM. In addition, the IC50 (PBLUC_HILL_SLOPE 2.22, PBLUC_R_SQUARED 0.599, read-out: LUCIFERASE INFECTION ASSAY - IC50) amounted to 0.207 µM.
With `Cc1ccc(C(=O)COC(=O)Cc2n[nH]c(=O)c3ccccc23)s1`, the IC90 was 9 µM. Where the note is “HEPG2TOX_HILL_SLOPE 1.97, HEPG2TOX_R_SQUARED 0.94, PBLUC_HILL_SLOPE 2.28, PBLUC_R_SQUARED 0.564, read-out: LUCIFERASE INFECTION ASSAY - IC50”, the half-maximal inhibitory concentration (IC50) amounted to 3.44 µM.
As to `Cc1cc(C)c(NC(=NC2CCCCC2)Nc2c(C)cc(C)cc2C)c(C)c1`, the IC90 stood at 9.33 µM. Also, the IC50 (PBLUC_HILL_SLOPE 26.1, PBLUC_R_SQUARED 0.486, read-out: LUCIFERASE INFECTION ASSAY - IC50) came to 8.58 µM.
Consider `Oc1c(C(c2ccc(Cl)cc2Cl)N2CCOCC2)ccc2cccnc12` (stereo not given), for which the IC90 was 8.77 µM. For the same molecule, the IC50 under setting [1] was 4.36 µM.
Take `Cc1ccc(C(=O)Cn2c(=O)n(C3CCCCC3)c(=O)c3ccccc32)cc1`: the IC90 was > 8.77 µM. The IC50 (FFLUC_HILL_SLOPE 15.7, FFLUC_R_SQUARED 0.382, PBLUC_HILL_SLOPE 31.1, PBLUC_R_SQUARED 0.0716, read-out: LUCIFERASE INFECTION ASSAY - IC50) was > 8.77 µM.
Take `CC(Sc1nccn1-c1cccc(F)c1)C(=O)Nc1ccc(N2CCOCC2)cc1` (stereo not given): the IC90 was > 10 µM. For the same molecule, for the setting “FFLUC_HILL_SLOPE 11.8, FFLUC_R_SQUARED 0.0999, read-out: LUCIFERASE INFECTION ASSAY - IC50”, the IC50 is > 10 µM.
`CCCCNC(=O)c1c(NC(=O)c2ccc(F)cc2)nc2ccccn12`: the IC90 was 3.43 µM. In addition, the IC50 (FFLUC_HILL_SLOPE 20.6, FFLUC_R_SQUARED 0.0581, HEPG2TOX_HILL_SLOPE 2.28, HEPG2TOX_R_SQUARED 0.75, PBLUC_HILL_SLOPE 12.8, PBLUC_R_SQUARED 0.452, read-out: LUCIFERASE INFECTION ASSAY - IC50) turned out to be 2.88 µM.
Regarding `CC(C)(C)c1ccc(NC(=O)c2ccc[nH]c2=S)cc1`, the IC90 is 0.656 µM. Further, the half-maximal inhibitory concentration (IC50) (PBLUC_HILL_SLOPE 0.943, PBLUC_R_SQUARED 0.946, read-out: LUCIFERASE INFECTION ASSAY - IC50) is 0.0638 µM.

These data come from ChEMBL document CHEMBL4483862, “Open-source discovery of chemical leads for next-generation chemoprotective antimalarials” (2018).
